Tests used:
[1] = Bone calcium mobilization activity (serum calcium by atomic absorption); format: in vivo; details: male weanling rats on low calcium, vitamin D deficient diet for 3 weeks; 650 pmole intrajugularly, 7 h prior to sacrifice; ± standard deviation from the mean
Procedure: Bone calcium mobilization activity of 1α,25-(OH)₂-26-homo-D₃ compounds
Male weanling rats were purchased from Holtzman Co., Madison, Wis. and fed ad libitum a low calcium, vitamin D deficient diet as described by Suda et al (J. Nutrition 100: 1049, 1970) and water for 3 weeks. The rats were then divided into 4 groups of 6 each and were intrajugularly given respectively 650 pmole of either 1α,25-(OH)₂-26-homo-D₃, 1α,25-(OH)₂-(22E)Δ²²-26-homo-D₃ or 1α,25-(OH)₂D₃ dissolved in 0.05 ml of 95% ethanol 7 h prior to sacrifice. […] The rats in the control group were given 0.05 ml of ethanol vehicle in the same manner. They were killed by decapitation, the blood was collected and centrifuged to obtain serum. Serum calcium concentration was determined with an atomic absorption spectrophotometer (Perkin-Elmer Model 214) in presence of 0.1% lanthanum chloride.

[2] = system: human promyelocytic leukemia cells (HL-60 cells); assay: NBT-reduction assay for differentiation; format: cell-based; details: four days (96 hr) incubation, read-out: concentration to achieve 60% differentiation
Procedure: (§1) The human promyelocytic leukemia cell line (HL-60) was maintained in suspension culture in RPMl 1640 medium (Gibco, Grand Island, NY) supplemented with 10% (v/v) heat inactivated fetal calf serum, 100 ug/ml penicillin, 100 µg/ml streptomycin and 0.25 µg/ml fungizone. Cells were cultured in a humidified atmosphere with 5% CO₂. Cell viability was assessed by standard assays, e.g. trypan blue exclusion. Morphological evaluations were done on Wright stained slide preparations.
(§2) Cells were seeded at 1.5 - 2 x 10⁵ cells/ml in 10 ml of medium in tissue culture dishes. […] Control cultures were treated with the same concentration of ethanol. After four days (96 hr) of incubation with test compounds, the cells were harvested from these culture dishes and cell number and viability were determined. […] After incubation of this mixture for 1 hr at 37°C, the number of phagocytic cells was counted (as determined by the trypan blue stained yeast appearing intracellularly) and expressed as a percent of the total viable cells present. […] After standing in a water bath for 30 min, the differentiated cells (i.e. the cells showing formazan blue deposits indicative of NBT reduction) were counted with a hemocytometer and expressed as the percent of total viable cells present.

[3] = system: human promyelocytic leukemia cells (HL-60 cells); assay: Phagocytosis assay for differentiation activity; format: cell-based; details: four days (96 hr) incubation
Procedure: as §1, §2

| Structure (SMILES) | Serum Calcium Concentration [1] | EC60 [2] | EC50 ([3]; Homo sapiens, HL-60, phagocytosis assay, read-out: concentration to achieve 50% differentiation) | differentiation (% phagocytic cells) ([3]; concentration of 10⁻⁸ molar) |
| --- | --- | --- | --- | --- |
| C=C1/C(=C\C=C2/CCC[C@]3(C)[C@@H]([C@H](C)CCCC(C)(O)CC)CC[C@@H]23)C[C@@H](O)C[C@@H]1O (stereo partly drawn) [1α,25-(OH)₂-26-homo-D₃, (25ξ)-1α,25-Dihydroxy-26-homovitamin D₃] | 4.6 ± 0.2 ^b^) mg/100 ml | – | – | – |
| C=C1/C(=C\C=C2/CCC[C@]3(C)[C@@H]([C@H](C)/C=C/CC(C)(O)CC)CC[C@@H]23)C[C@@H](O)C[C@@H]1O (stereo partly drawn) [1α,25-(OH)₂-(22E)Δ²²-26-homo-D₃, (22E,25ξ)-1α,25-Dihydroxy-22-dehydro-26-homovitamin D₃] | 4.6 ± 0.3 ^b^) mg/100 ml | – | – | – |
| C=C1/C(=C\C=C2/CCC[C@]3(C)[C@@H]([C@H](C)CCCC(C)(C)O)CC[C@@H]23)C[C@@H](O)C[C@@H]1O [1α,25-(OH)₂D₃, 1α,25-dihydroxyvitamin D₃] | 4.5 ± 0.2 ^b^) mg/100 ml | 35 nM | ~10 nM | about 47% |
